In patent US10051861B2, “N-arylamidine-substituted trifluoroethyl sulfide derivatives as acaricides and insecticides” (BAYER CROPSCIENCE AG, priority 2011, dated 2018):
Like-named read-outs stand apart in the source and are kept apart here.

Assays:
[1] = system: larvae of the mustard beetle (Phaedon cochleariae); assay: Phaedon cochleariae spray test (PHAECO); conditions: Phaedon cochleariae, 168 h, read-out: effect (beetle larvae killed)
[2] = system: greenhouse red spider mite (Tetranychus urticae); assay: Tetranychus urticae spray test, OP-resistant (TETRUR), bean leaf disks; type: in vivo; conditions: Tetranychus urticae, foliar, 144 h, read-out: efficacy (spider mites killed)
Description: After 6 days, the effect in % is determined.

[3] = logP by HPLC on reversed-phase columns (C 18), EEC Directive 79/831 Annex V.A8; type: physicochemical
Description: Calibration is carried out using unbranched alkan-2-ones (having from 3 to 16 carbon atoms) with known log P values (the log P values are determined by the retention times using linear interpolation between two successive alkanones).

[4] = application rate 500 g/ha, after 6 days
[5] = reversed-phase C18 HPLC column, pH 2.7, [a] LC-MS, acidic range, pH 2.7, 0.1% aqueous formic acid/acetonitrile, read-out: logP(HCOOH)
[6] = reversed-phase C18 HPLC column, pH 7.8, [b] LC-MS, neutral range, pH 7.8, 0.001 molar aqueous ammonium bicarbonate/acetonitrile, read-out: logP(neutral)

| SMILES | pest or weed control at 500 g/ha [1] [%] | pest or weed control at 500 g/ha [2, 4] [%] | chromatographic logP [3, 5] | chromatographic logP [3, 6] | pest or weed control at 500 g/ha [2] [%] | chromatographic logP ([3]; [a] LC-MS, acidic range, pH 2.7, 0.1% aqueous formic acid/acetonitrile, read-out: logP(HCOOH)) |
| --- | --- | --- | --- | --- | --- | --- |
| N/C(=N/c1cc(SCC(F)(F)F)c(Br)cc1Br)C(F)(F)F [Ia-28] | 100 | 100 | – | – | – | – |
| Cc1cc(F)c(/N=C(\N)C2(Cl)CC2F)cc1SCC(F)(F)F (centres unmarked) [Ia-29] | 100 | 100 | – | – | – | – |
| Cc1cc(F)c(/N=C(/Nc2ccc(Cl)cc2)C(F)(F)F)cc1SCC(F)(F)F [Ia-31] | 100 | 100 | 4.73 | 4.67 | – | – |
| Cc1cc(F)c(/N=C(\N)C2CC2F)cc1SCC(F)(F)F (centres unmarked) [Ia-33] | 83 | 100 | – | – | – | – |
| CN(C)/C(=N/c1cc(SCC(F)(F)F)c(Cl)cc1F)C(F)(F)F [Ia-35] | 100 | 100 | – | – | – | – |
| Cc1cc(Cl)c(/N=C(\N)C2(Cl)CC2)cc1SCC(F)(F)F [Ia-36] | 100 | 100 | – | – | – | – |
| Cc1cc(Cl)c(/N=C(\N)C(F)(F)C(F)(F)F)cc1SCC(F)(F)F [Ia-38] | 100 | 100 | – | – | – | – |
| Cc1cc(F)c(/N=C(/Nc2ccc(C(F)(F)F)cc2)C(F)(F)F)cc1SCC(F)(F)F [Ia-45] | 100 | 80 | 4.82 | 4.71 | – | – |
| Cc1cc(F)c(/N=C2\CCCN2c2ccccc2)cc1SCC(F)(F)F [Ia-78, 2-Fluoro-4-methyl-N-[(2E)-1-phenylpyrrolidin-2-ylidene]-5-[(2,2,2-trifluoroethyl)sulfanyl]aniline] | 100 | 100 | – | – | – | – |
| Cc1cc(F)c(/N=C(\N)[C@H]2CC2(C)C)cc1SCC(F)(F)F [Ia-79] | 100 | 100 | – | – | – | – |
| Cc1cc(F)c(/N=C(\N)C2CC2)cc1SCC(F)(F)F [Ia-92] | 83 | 90 | – | – | – | – |
| N/C(=N/c1cc(SCC(F)(F)F)c(Br)cc1Cl)C(F)(F)F [Ia-121] | 100 | 100 | – | – | – | – |
| N/C(=N\c1cc(SCC(F)(F)F)c(Cl)cc1Cl)c1ccncn1 [Ia-130] | 83 | 100 | – | – | – | – |
| N/C(=N\c1cc(SCC(F)(F)F)c(Cl)cc1Cl)c1ccccn1 [Ia-134] | 83 | 100 | – | – | – | – |
| N/C(=N\c1cc(SCC(F)(F)F)c(Cl)cc1Cl)c1ccc(Cl)nc1 [Ia-135] | 100 | 100 | – | – | – | – |
| N/C(=N\c1cc(SCC(F)(F)F)c(Cl)cc1Cl)C1CC1 [Ia-139] | 100 | 100 | – | – | – | – |
| Cc1cc(F)c(/N=C(\NCC(F)(F)F)C2CC2)cc1SCC(F)(F)F [Ia-145, N′-{2-fluoro-4-methyl-5-[(2,2,2-trifluoroethyl)sulfanyl]phenyl}-N-(2,2,2-trifluoroethyl)cyclopropanecarboximidamide] | – | 100 | 1.99 | 4.12 | – | – |
| CN/C(=N/c1cc(SCC(F)(F)F)c(C)cc1F)c1ccc(OC)cc1 [Ia-165] | – | 100 | 1.68 | 3.49 | – | – |
| Cc1cc(F)c(/N=C(\c2ccco2)N(C)C)cc1SCC(F)(F)F [Ia-166, N′-{2-Fluoro-4-methyl-5-[(2,2,2-trifluoroethyl)sulfanyl]phenyl}-N,N-dimethylfuran-2-carboximidamide] | – | 100 | 1.57 | 3.94 | – | – |
| Cc1cc(F)c(/N=C(/NCc2ccccc2)C(F)(F)F)cc1SCC(F)(F)F [Ia-171] | 83 | 90 | – | – | – | – |
| Cc1cc(F)c(/N=C2\SCC(=O)N2CC(F)(F)F)cc1SCC(F)(F)F [Ia-175, 2-({2-Fluoro-4-methyl-5-[(2,2,2-trifluoroethyl)sulfanyl]phenyl}imino)-3-(2,2,2-trifluoroethyl)-1,3-thiazolidin-4-one] | – | 90 | 4.09 | 3.99 | – | – |
| Cc1cc(F)c(/N=C2\CCCN2c2ccc(C(F)(F)F)cc2)cc1SCC(F)(F)F [Ia-191] | 100 | 100 | – | – | – | – |
| CN(C)/C(CC(F)(F)F)=N\c1cc(SCC(F)(F)F)c(Cl)cc1Cl [Ia-202] | 100 | 100 | – | – | – | – |
| CN(C)/C(=N\c1cc(SCC(F)(F)F)c(Cl)cc1Cl)c1ccccc1Cl [Ia-207] | 83 | 100 | – | – | – | – |

| SMILES | pest or weed control at 500 g/ha [1] [%] | pest or weed control at 500 g/ha [2, 4] [%] | chromatographic logP [3, 5] | chromatographic logP [3, 6] | pest or weed control at 500 g/ha [2] [%] | chromatographic logP ([3]; [a] LC-MS, acidic range, pH 2.7, 0.1% aqueous formic acid/acetonitrile, read-out: logP(HCOOH)) |
| --- | --- | --- | --- | --- | --- | --- |
| N/C(=N\c1cc(SCC(F)(F)F)c(Cl)cc1Cl)C1CCC1 [Ia-209] | 100 | 100 | – | – | – | – |
| N/C(=N\c1cc(SCC(F)(F)F)c(Cl)cc1Cl)C(Cl)(Cl)Cl [Ia-210] | 83 | – | – | – | 100 | – |
| FC(F)(F)CSc1cc(/N=C(\NC2CC2)c2ccc(Cl)nc2)c(Cl)cc1Cl [Ia-229] | 100 | 90 | – | – | – | – |
| CN/C(=N/c1cc(SCC(F)(F)F)c(C)cc1F)c1ccc(C(F)(F)F)cc1 [Ia-250, N′-{2-Fluoro-4-methyl-5-[(2,2,2-trifluoroethyl)sulfanyl]phenyl}-N-methyl-4-(trifluoromethyl)benzenecarboximidamide] | – | 90 | 1.96 | 4.08 | – | – |
| Cc1cc(F)c(/N=C(\NCC2CCC(C(F)(F)F)CC2)C2CC2)cc1SCC(F)(F)F (centres unmarked) [Ia-251] | – | 90 | 2.23 | – | – | – |
| Cc1cc(F)c(/N=C2/NCCCS2)cc1SCC(F)(F)F [Ia-278, 2-fluoro-4-methyl-N-[1,3-thiazinan-2-ylidene]-5-[(2,2,2-trifluoroethyl)sulfanyl]anilinium chloride] | – | – | – | – | 90 | 1.34 |
| CN/C(=N/c1cc([S+]([O-])CC(F)(F)F)c(Cl)cc1Cl)C(F)(F)F (centres unmarked) [Ib-21] | – | 100 | 3.32 | 3.32 | – | – |
| Cc1cc(Cl)c(/N=C(\N)C2(Cl)CC2)cc1[S+]([O-])CC(F)(F)F (centres unmarked) [Ib-27] | 100 | 100 | – | – | – | – |
| Cc1cc(F)c(/N=C2\CCCN2c2ccc(C(F)(F)F)cc2)cc1[S+]([O-])CC(F)(F)F (centres unmarked) [Ib-30] | 83 | 100 | – | – | – | – |
| Cc1cc(F)c(/N=C(\NC2CC2)C2CC2)cc1[S+]([O-])CC(F)(F)F (centres unmarked) [Ib-39] | 100 | 100 | – | – | – | – |
| Cc1cc(F)c(/N=C(\N)C(F)F)cc1[S+]([O-])CC(F)(F)F (centres unmarked) [Ib-43] | 100 | 100 | – | – | – | – |
| Cc1cc(F)c(/N=C(/Nc2ccccc2)C(F)(F)F)cc1[S+]([O-])CC(F)(F)F (centres unmarked) [Ib-49] | – | 100 | 3.22 | 3.12 | – | – |
| CN/C(=N\c1cc([S+]([O-])CC(F)(F)F)c(C)cc1Cl)C(F)(F)F (centres unmarked) [Ib-56] | 100 | 100 | – | – | – | – |
| N/C(=N/c1cc([S+]([O-])CC(F)(F)F)c(Cl)cc1Br)C(F)(F)F (centres unmarked) [Ib-57] | 100 | 100 | – | – | – | – |
| Cc1cc(F)c(/N=C(\N)c2cnccn2)cc1[S+]([O-])CC(F)(F)F (centres unmarked) [Ib-62, N′-{2-Fluoro-4-methyl-5-[(2,2,2-trifluoroethyl)sulfinyl]phenyl}pyrazine-2-carboximidamide] | – | 100 | 0.84 | 1.77 | – | – |
| Cc1cc(F)c(/N=C2\SCC(=O)N2CC(F)(F)F)cc1[S+]([O-])CC(F)(F)F (centres unmarked) [Ib-71, 2-({2-Fluoro-4-methyl-5-[(2,2,2-trifluoroethyl)sulfinyl]phenyl}imino)-3-(2,2,2-trifluoroethyl)-1,3-thiazolidin-4-one] | – | 100 | 2.93 | 2.87 | – | – |
| CN/C(=N/c1cc([S+]([O-])CC(F)(F)F)c(Br)cc1F)C(F)(F)F (centres unmarked) [Ib-78] | 100 | 100 | – | – | – | – |
| [O-][S+](CC(F)(F)F)c1cc(/N=C(\NCC(F)(F)F)C2CC2)c(Cl)cc1Cl (centres unmarked) [Ib-83] | 100 | 100 | – | – | – | – |
| COc1ccc(N/C(=N/c2cc([S+]([O-])CC(F)(F)F)c(C)cc2F)C(F)(F)F)cc1 (centres unmarked) [Ib-86] | – | 100 | 3.04 | 3.05 | – | – |
| Cc1cc(F)c(/N=C(/NCc2ccc(C(F)(F)F)cc2)C(F)(F)F)cc1[S+]([O-])CC(F)(F)F (centres unmarked) [Ib-101] | 100 | 90 | – | – | – | – |
| CN/C(=N/c1ccc(Cl)c([S+]([O-])CC(F)(F)F)c1)C(F)(F)F (centres unmarked) [Ib-110] | 100 | 100 | – | – | – | – |
| Cc1ccc(/N=C(/N)C(F)(F)F)cc1[S+]([O-])CC(F)(F)F (centres unmarked) [Ib-111] | 100 | 90 | – | – | – | – |
| C#CCN/C(=N\c1cc([S+]([O-])CC(F)(F)F)c(C)cc1F)C1CC1 (centres unmarked) [Ib-137] | 83 | 100 | – | – | – | – |
| Cc1cc(F)c(/N=C(/c2ccc(Cl)cc2)N2CCC(F)(F)CC2)cc1[S+]([O-])CC(F)(F)F (centres unmarked) [Ib-143] | 83 | 90 | – | – | – | – |
